Columns and labels:
[1] = molecular target: T1, CaV2.2 (Homo sapiens, UniProt Q00975); test: VIPR optical membrane potential assay with electrical stimulation, CaV2.2; type: cell-based; settings: Table 9, CaV 2.2 receptors
T1 construct: expressed in transfected cells; host or cells: HEK293
Experimental: A. Optical Methods for Assaying CaV Inhibition Properties of Compounds:
(§1) Antagonist properties of test compounds were assessed as follows. Cells expressing the CaV of interest were placed into microtiter plates. After an incubation period, the cells were stained with fluorescent dyes sensitive to the transmembrane potential. The test compounds were added to the microtiter plate. The cells were stimulated with electrical means to evoke a CaV dependent membrane potential change from unblocked channels, which was detected and measured with trans-membrane potential-sensitive dyes. Antagonists were detected as a decreased membrane potential response to the stimulus.
(§2) VIPR® Optical Membrane Potential Assay Method with Electrical Stimulation
The following is an example of how CaV2.2 inhibition activity is measured using the optical membrane potential method. Other subtypes are performed in an analogous mode in a cell line expressing the CaV of interest.
HEK293 cells stably expressing CaV2.2 are plated into 96-well microtiter plates. After an appropriate incubation period, the cells are stained with the voltage sensitive dyes CC2-DMPE/DiSBAC2(3) as follows.
(§3) 2X CC2-DMPE=20 μM CC2-DMPE: 10 mM CC2-DMPE is vortexed with an equivalent volume of 10% Pluronic, followed by vortexing in required amount of HBSS containing 10 mM HEPES. Each cell plate will require 5 mL of 2×CC2-DMPE. 50 μL of 2×CC2-DMPE is added to wells containing washed cells, resulting in a 10 μM final staining concentration. The cells are stained for 30 minutes in the dark at RT.
Vortex in required amount of Bath X with beta-cyclodextrin. Each 96 well cell plate will require 5 ml of 2XCC2DMPE. Wash plate with ELx405 with Bath X, leaving a residual volume of 50 μL/well. Add 50 μL of 2XCC2DMPE & […] to each well. Stain for 30 minutes in the dark at RT.
Allow solution to sit for 10 minutes. Slowly mix in 370 mM BaCl2. This solution can be used to solvate compound plates. Note that compound plates are made at 1.5× drug concentration and not the usual 2X. Wash CC2 stained plate, again, leaving residual volume of 50 μL. Add 100 uL/well of the AY17 solution. Stain for 15 minutes in the dark at RT. Run plate on the optical reader.
(§4) The instrument comprises a microtiter plate handler, an optical system for exciting the coumarin dye while simultaneously recording the coumarin and oxonol emissions, a waveform generator, a current- or voltage-controlled amplifier, and a device for inserting electrodes in well. Under integrated computer control, this instrument passes user-programmed electrical stimulus protocols to cells within the wells of the microtiter plate.
Insert or use electrodes into each well to be assayed.
(§5) Use the current-controlled amplifier to deliver stimulation wave pulses for 3-5 s. Two seconds of pre-stimulus recording are performed to obtain the un-stimulated intensities. Five seconds of post-stimulation recording are performed to examine the relaxation to the resting state.
(§6) Data are analyzed and reported as normalized ratios of background-subtracted emission intensities measured in the 460 nm and 580 nm channels. Background intensities are then subtracted from each assay channel. Background intensities are obtained by measuring the emission intensities during the same time periods from identically treated assay wells in which there are no cells. The response as a function of time is then reported as the ratios obtained using the following formula: […]
(§7) The data is further reduced by calculating the initial (Ri) and final (Rf) ratios. These are the average ratio values during part or all of the pre-stimulation period, and during sample points during the stimulation period. The response to the stimulus R=Rf/Ri is then calculated.
Control responses are obtained by performing assays in the presence of a compound with the desired properties (positive control), such as mibefradil, and in the absence of pharmacological agents (negative control).

[2] = molecular target: T2, NaV1.3 (Homo sapiens, UniProt Q9NY46); test: VIPR optical membrane potential assay with electrical stimulation, NaV1.3; type: cell-based; settings: Table 9, NaV 1.3 receptors
T2 construct: expressed in transfected cells; host or cells: HEK293
Experimental: as §1, with “expressing the NaV of interest” for “expressing the CaV of interest”, “stimulated with either chemical or electrical means” for “stimulated with electrical means”, “evoke a NaV dependent membrane” for “evoke a CaV dependent membrane”
as §2
The following is an example of how NaV1.3 inhibition activity is measured using the optical membrane potential method#2. Other subtypes are performed in an analogous mode in a cell line expressing the NaV of interest.
HEK293 cells stably expressing NaV1.3 are plated into 96-well microtiter plates. After an appropriate incubation period, the cells are stained with the voltage sensitive dyes CC2-DMPE/DiSBAC2(3) as follows.
as §3, with “pluronic,” for “Pluronic,”
2X DISBAC2(3) with ABSC1=6 μM DISBAC2(3) and 1 mM ABSC1: The required amount of 10 mM DISBAC2(3) is added to a 50 ml conical tube and mixed with 1 μL 10% pluronic for each mL of solution to be made and vortexed together. Then HBSS/HEPES is added to make up 2× solution. Finally, the ABSC1 is added.
The 2X DiSBAC2(3) solution can be used to solvate compound plates. Note that compound plates are made at 2× drug concentration. Wash stained plate again, leaving residual volume of 50 Add 50 μL/well of the 2X DiSBAC2(3) w/ABSC1. Stain for 30 minutes in the dark at RT.
as §4
as §5, with “• 1. Insert or use electrodes into each well to be assayed. • 2. Use” for “Use”, “3” for “3-5”, “state. Data Analysis” for “state.”
as §6, §7
Control responses are obtained by performing assays in the presence of a compound with the desired properties (positive control), such as tetracaine, and in the absence of pharmacological agents (negative control). Responses to the negative (N) and positive (P) controls are calculated as above. The compound antagonist activity A is defined as: […]

T1 sequence (Q00975 whole entry): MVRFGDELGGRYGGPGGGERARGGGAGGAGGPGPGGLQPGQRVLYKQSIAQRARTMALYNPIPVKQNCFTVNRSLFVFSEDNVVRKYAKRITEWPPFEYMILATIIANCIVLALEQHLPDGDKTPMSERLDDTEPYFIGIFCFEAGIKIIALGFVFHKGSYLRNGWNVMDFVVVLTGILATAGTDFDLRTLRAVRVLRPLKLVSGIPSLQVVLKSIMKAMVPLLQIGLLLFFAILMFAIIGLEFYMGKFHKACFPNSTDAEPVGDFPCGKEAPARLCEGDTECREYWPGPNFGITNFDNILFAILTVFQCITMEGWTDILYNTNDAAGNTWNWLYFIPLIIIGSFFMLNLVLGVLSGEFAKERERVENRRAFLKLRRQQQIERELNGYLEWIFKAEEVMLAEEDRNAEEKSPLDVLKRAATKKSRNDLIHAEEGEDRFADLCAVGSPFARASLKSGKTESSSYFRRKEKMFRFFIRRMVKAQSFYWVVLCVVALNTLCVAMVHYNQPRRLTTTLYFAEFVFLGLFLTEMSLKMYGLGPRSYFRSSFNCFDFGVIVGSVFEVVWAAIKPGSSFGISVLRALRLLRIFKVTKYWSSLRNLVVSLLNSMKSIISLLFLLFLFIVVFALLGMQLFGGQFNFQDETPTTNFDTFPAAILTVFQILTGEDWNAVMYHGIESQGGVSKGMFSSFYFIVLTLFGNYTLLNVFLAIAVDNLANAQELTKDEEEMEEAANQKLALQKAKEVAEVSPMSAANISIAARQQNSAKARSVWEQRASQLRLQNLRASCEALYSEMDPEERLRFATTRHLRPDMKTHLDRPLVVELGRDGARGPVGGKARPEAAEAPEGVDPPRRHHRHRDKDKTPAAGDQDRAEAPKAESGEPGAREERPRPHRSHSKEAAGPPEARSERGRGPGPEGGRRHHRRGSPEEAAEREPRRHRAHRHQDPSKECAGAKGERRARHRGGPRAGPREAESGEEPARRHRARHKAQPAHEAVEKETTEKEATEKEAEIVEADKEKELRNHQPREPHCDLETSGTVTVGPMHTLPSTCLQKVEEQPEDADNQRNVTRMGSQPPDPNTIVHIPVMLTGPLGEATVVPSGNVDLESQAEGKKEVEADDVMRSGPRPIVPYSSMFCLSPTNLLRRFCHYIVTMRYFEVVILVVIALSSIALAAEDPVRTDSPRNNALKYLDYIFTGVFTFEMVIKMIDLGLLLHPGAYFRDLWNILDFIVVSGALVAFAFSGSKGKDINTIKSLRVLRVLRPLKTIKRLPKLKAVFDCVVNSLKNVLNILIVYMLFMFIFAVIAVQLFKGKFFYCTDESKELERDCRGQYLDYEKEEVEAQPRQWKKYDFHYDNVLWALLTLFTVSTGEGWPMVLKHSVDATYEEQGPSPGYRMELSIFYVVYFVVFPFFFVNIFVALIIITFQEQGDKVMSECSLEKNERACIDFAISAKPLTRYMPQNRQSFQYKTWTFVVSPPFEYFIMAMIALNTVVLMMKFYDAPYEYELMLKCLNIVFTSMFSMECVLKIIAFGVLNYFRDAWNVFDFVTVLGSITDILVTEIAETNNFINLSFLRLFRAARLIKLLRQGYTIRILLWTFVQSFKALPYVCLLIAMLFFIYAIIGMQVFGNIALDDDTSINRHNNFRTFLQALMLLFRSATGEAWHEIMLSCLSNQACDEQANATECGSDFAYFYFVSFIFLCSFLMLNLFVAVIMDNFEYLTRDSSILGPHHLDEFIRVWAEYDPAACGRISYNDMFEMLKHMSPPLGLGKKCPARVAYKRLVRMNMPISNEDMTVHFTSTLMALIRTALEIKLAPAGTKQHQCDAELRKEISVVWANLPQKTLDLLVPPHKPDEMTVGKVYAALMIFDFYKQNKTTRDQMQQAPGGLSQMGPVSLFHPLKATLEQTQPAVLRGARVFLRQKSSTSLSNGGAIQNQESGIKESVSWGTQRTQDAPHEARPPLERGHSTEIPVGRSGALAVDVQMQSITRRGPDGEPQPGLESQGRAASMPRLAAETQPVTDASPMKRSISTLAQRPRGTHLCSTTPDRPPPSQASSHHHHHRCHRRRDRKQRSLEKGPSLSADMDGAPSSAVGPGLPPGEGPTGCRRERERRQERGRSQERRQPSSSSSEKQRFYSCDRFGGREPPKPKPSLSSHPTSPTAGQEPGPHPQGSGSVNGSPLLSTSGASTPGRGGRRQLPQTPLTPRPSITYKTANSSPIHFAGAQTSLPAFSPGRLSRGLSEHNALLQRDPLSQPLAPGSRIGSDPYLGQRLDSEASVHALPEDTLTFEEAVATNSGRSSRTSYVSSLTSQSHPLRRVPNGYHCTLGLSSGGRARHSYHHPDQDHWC
T1 sequence (P54284 whole entry partner): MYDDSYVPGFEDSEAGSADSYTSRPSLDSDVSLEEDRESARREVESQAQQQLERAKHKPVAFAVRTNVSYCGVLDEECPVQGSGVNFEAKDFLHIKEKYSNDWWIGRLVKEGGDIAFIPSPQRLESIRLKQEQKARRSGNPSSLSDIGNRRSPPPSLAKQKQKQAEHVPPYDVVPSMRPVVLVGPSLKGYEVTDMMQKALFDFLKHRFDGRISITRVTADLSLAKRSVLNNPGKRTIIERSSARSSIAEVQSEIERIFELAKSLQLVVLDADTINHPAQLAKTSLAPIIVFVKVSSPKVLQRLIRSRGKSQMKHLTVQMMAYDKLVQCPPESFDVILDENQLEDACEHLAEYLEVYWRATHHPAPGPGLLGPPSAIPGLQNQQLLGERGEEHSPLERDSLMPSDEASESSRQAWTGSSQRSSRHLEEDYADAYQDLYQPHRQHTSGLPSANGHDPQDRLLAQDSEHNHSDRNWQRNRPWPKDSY
T1 sequence (P54289 25-956 partner limits assumed): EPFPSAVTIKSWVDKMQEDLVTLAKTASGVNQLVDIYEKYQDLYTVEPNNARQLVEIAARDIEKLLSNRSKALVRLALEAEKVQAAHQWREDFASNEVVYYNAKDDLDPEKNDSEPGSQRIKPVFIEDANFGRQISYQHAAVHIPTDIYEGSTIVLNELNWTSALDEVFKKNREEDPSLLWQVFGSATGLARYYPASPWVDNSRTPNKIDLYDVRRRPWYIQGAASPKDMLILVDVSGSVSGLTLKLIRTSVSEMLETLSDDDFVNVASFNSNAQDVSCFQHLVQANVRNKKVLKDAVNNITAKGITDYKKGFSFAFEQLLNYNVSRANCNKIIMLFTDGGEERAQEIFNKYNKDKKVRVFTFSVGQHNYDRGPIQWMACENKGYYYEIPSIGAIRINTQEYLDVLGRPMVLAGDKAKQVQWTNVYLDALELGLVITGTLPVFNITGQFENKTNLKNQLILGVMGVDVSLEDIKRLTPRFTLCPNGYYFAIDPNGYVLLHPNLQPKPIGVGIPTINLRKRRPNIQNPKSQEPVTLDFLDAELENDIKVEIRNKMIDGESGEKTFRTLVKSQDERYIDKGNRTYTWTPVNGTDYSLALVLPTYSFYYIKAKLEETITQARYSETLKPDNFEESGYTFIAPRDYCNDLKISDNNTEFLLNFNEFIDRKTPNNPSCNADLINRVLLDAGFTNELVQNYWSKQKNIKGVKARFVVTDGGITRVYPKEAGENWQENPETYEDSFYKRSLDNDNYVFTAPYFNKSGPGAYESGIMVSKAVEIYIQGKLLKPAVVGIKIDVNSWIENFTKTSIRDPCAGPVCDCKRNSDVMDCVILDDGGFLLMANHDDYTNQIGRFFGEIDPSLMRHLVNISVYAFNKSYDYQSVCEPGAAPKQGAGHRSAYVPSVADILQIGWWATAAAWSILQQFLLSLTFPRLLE
T1 sequence (P54289 957-1103 partner limits assumed): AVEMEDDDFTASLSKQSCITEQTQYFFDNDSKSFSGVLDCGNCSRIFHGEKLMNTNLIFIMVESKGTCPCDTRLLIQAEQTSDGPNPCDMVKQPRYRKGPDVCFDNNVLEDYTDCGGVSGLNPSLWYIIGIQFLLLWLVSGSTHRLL

Row | Compound | IC50 [1] | IC50 [2]
1 | CCCCNc1ncc(C(=O)N(C)CC(C)C)c(-c2cccc(C)c2)n1 [compound 262] | > 10 µM | > 10 µM
2 | Cc1nc(N2CCOCC2)nc(-c2ccccc2F)c1C(=O)N(Cc1ccccc1)C(C)C [compound 338, N-benzyl-4-(2-fluorophenyl)-N-isopropyl-6-methyl-2-morpholinopyrimidine-5-carboxamide] | > 10 µM | 
3 | N#Cc1ccc(-c2nc(N3CCCC3)ncc2C(=O)NCC2CCCCC2)cc1 [compound 346] | > 10 µM | > 10 µM
4 | CC(=O)NCCNc1ncc(C(=O)N2CCC(C)CC2)c(-c2ccc(-c3ccccc3)cc2)n1 [compound 251] | 2 to 10 µM | > 10 µM
5 | CCN(Cc1cccc(C)c1)C(=O)c1cnc(NCCCOC)nc1-c1ccc(C#N)cc1 [compound 265] | > 10 µM | > 10 µM
6 | COCCNc1ncc(C(=O)N(CC(C)C)CC(C)C)c(-c2cccc(C)c2)n1 [compound 348] | > 10 µM | > 10 µM
7 | CC1CCN(C(=O)c2cnc(NCc3ccccc3C(F)(F)F)nc2-c2ccc(C#N)cc2)CC1 [compound 221] | > 10 µM | 
8 | CCC(C)NC(=O)c1cnc(NC2CC3CC(C2C)C3(C)C)nc1-c1ccc(C#N)cc1 (centres unmarked) [compound 228] | > 10 µM | > 10 µM
9 | Cc1cccc(-c2nc(NCc3cccc(Cl)c3)ncc2C(=O)N2CCOCC2)c1 [compound 318] | > 10 µM | 
10 | CCOCCN(CCOCC)C(=O)c1cnc(N2CCOCC2)nc1-c1ccccc1F [compound 315] | > 10 µM | 
11 | CCN(Cc1cccc(C)c1)C(=O)c1cnc(N2CCOCC2)nc1-c1ccc(C#N)cc1 [compound 247] | > 10 µM | > 10 µM
12 | CCN(Cc1cccc(C)c1)C(=O)c1cnc(N(C)CC)nc1-c1ccccc1F [compound 246] | 2 to 10 µM | > 10 µM
13 | COCCNc1ncc(C(=O)N(C)C2CCCCC2)c(-c2ccccc2F)n1 [compound 276] | > 10 µM | > 10 µM
14 | CCC(C)NC(=O)c1cnc(NCCc2ccc(Cl)cc2)nc1-c1ccccc1F (centres unmarked) [compound 305] | > 10 µM | > 10 µM
15 | CC(=O)NCCNC(=O)c1cnc(N2CCCC2)nc1-c1ccc(-c2ccccc2)cc1 [compound 281] | > 10 µM | > 10 µM
16 | CCN(Cc1ccccc1)C(=O)c1cnc(NCCCOC)nc1-c1ccccc1F [compound 327] | > 10 µM | > 10 µM
17 | CC(C)CN(C)C(=O)c1cnc(N2CCOCC2)nc1-c1ccccc1F [compound 215] | > 10 µM | 
18 | CCN(C)c1ncc(C(=O)N(Cc2ccccc2)C(C)C)c(-c2ccccc2F)n1 [compound 312] | 2 to 10 µM | 
19 | O=C(c1cnc(N2CCOCC2)nc1-c1ccccc1F)N1CCOCC1 [compound 275] | > 10 µM | 
20 | O=C(NCC1CCCCC1)c1cnc(N2CCOCC2)nc1-c1ccccc1F [compound 328] | > 10 µM | 
21 | N#Cc1ccc(-c2nc(N3CCOCC3)ncc2C(=O)NCc2ccccc2C(F)(F)F)cc1 [compound 287] | > 10 µM | 
22 | O=C(NCC1CC1)c1cnc(N2CCOCC2)nc1-c1ccccc1F [compound 212] | > 10 µM | 
23 | CCN(C)C(=O)c1cnc(NCCc2ccc(OC)cc2)nc1-c1cccc(C)c1 [compound 234] | > 10 µM | 

Continued, values first:

Row | IC50 [1] | IC50 [2] | Compound
24 | 2 to 10 µM | > 10 µM | CCN(Cc1ccccc1)C(=O)c1cnc(N2CCCCC2)nc1-c1ccccc1F [compound 237]
25 | > 10 µM | > 10 µM | N#Cc1ccc(-c2nc(NCC3CCCCC3)ncc2C(=O)N2CCCCC2)cc1 [compound 245]
26 | > 10 µM |  | N#Cc1ccc(-c2nc(NCCc3cccc(F)c3)ncc2C(=O)NCc2ccccc2)cc1 [compound 249]
27 | 2 to 10 µM |  | CCN(Cc1cccc(C)c1)C(=O)c1cnc(N2CCCC2)nc1-c1ccccc1F [compound 335]
28 | 2 to 10 µM |  | CC(=O)N1CCN(c2ncc(C(=O)N3CCCCC3)c(-c3ccc(-c4ccccc4)cc3)n2)CC1 [compound 278]
29 | 2 to 10 µM | > 10 µM | CCC1CCC(C)N(C(=O)c2cnc(N(C)CC)nc2-c2ccccc2F)C1 (centres unmarked) [compound 282]
30 | > 10 µM | > 10 µM | CCN(Cc1ccccc1)C(=O)c1cnc(NCc2ccc(C)o2)nc1-c1ccc(C#N)cc1 [compound 244]
31 | > 10 µM | > 10 µM | CCC(C)Nc1ncc(C(=O)N(C)CC)c(-c2cccc(C)c2)n1 (centres unmarked) [compound 273]
32 | > 10 µM | > 10 µM | COc1ccccc1CCNC(=O)c1cnc(N2CCOCC2)nc1-c1ccccc1F [compound 302]
33 | > 10 µM | > 10 µM | CCCCNC(=O)c1cnc(NC2CCCC2)nc1-c1cccc(C)c1 [compound 218]
34 | 2 to 10 µM | > 10 µM | CC(C)N(Cc1ccccc1)C(=O)c1cnc(N2CCOCC2)nc1-c1ccc(C#N)cc1 [compound 232]
35 | > 10 µM |  | CCN(Cc1ccccc1)C(=O)c1cnc(NC2CCCC2)nc1-c1ccccc1F [compound 311]
36 | > 10 µM | > 10 µM | CC1CCCCC1NC(=O)c1cnc(N2CCCC(C(N)=O)C2)nc1-c1ccc(C#N)cc1 (centres unmarked) [compound 286]
37 | > 10 µM | > 10 µM | O=C(NCc1ccccc1C(F)(F)F)c1cnc(N2CCOCC2)nc1-c1ccccc1F [compound 242]
38 | > 10 µM | > 10 µM | COc1ccccc1CCNC(=O)c1cnc(N2CCCC2)nc1-c1cccc(C)c1 [compound 272]
39 | > 10 µM | > 10 µM | CCN(Cc1ccccc1)C(=O)c1cnc(N2CCOCC2)nc1-c1ccccc1F [compound 350]
40 | > 10 µM |  | CN(C(=O)c1cnc(N2CCOCC2)nc1-c1ccccc1F)C1CCCCC1 [compound 283]
41 | > 10 µM |  | CCC(C)NC(=O)c1cnc(N2CCOCC2)nc1-c1ccccc1F (centres unmarked) [compound 213]
42 | > 10 µM |  | CC1CCCCC1NC(=O)c1cnc(N2CCOCC2)nc1-c1ccccc1F (centres unmarked) [compound 254]
43 | > 10 µM |  | O=C(c1cnc(N2CCOCC2)nc1-c1ccccc1F)N1CCCC1 [compound 250]
44 | > 10 µM |  | CCCCNC(=O)c1cnc(NCCCC)nc1-c1cccc(C)c1 [compound 214]
